Source: US8815881B2 (Hoffmann-La Roche Inc., priority 2010, dated 2014)

Molecular target: endogenous cellular BACE2 in the Ins1e rat cell line (Rattus norvegicus (Rat), UniProt Q6IE75)
Test: Assay for BACE inhibition by measuring cellular TMEM27 cleavage (ELISA of shed hTMEM27 from INS-TMEM27 cells)
Assay type: cell-based
Settings: assay a): cellular TMEM27 cleavage, INS-TMEM27 cells (superscript a)
Excerpt: a) Assay for BACE Inhibition by Measuring Cellular TMEM27 Cleavage:
The assay uses the principle of inhibition of human TMEM27 cleavage by endogenous cellular BACE2 in the Ins1e rat cell line and shedding from the cell surface into the culture medium, followed by detection in an ELISA assay. Inhibition of BACE2 prevents the cleavage and shedding in a dose-dependent manner.
The stable cell line “INS-TMEM27” represents an INS1e-derived cell line with inducible expression (using the TetOn system) of full-length hTMEM27 in a doxycycline-dependent manner. The cells are cultured throughout the experiment in RPMI1640+Glutamax (Invitrogen) Penicillin/Streptomycin, 10% Fetal bovine serum, […], […], 100 micrograms/ml G418 and 100 microgram/ml hygromycin and are grown inadherent culture at 37° C. in a standard CO2 cell culture incubator.
INS-TMEM27 cells are seeded in 96-well plates. After 2 days in culture, BACE2 inhibitor is added in a range of concentrations as required by the assay and after a further two hours, doxycycline is added to a final concentration of 500 ng/ml. The cells are incubated for a further 46 hours and the supernatant harvested for detection of shed TMEM27.
An ELISA assay (using a pair of mouse anti-human-TMEM27 antibodies, raised against the extracellular domain of TMEM27) is used for detection of TMEM27 in the culture medium. An EC50 for BACE2 inhibition is calculated using the ELISA readout for each inhibitor concentration with standard curve-fitting software such as XLFit for the Excel spreadsheet program.

Sequence of endogenous cellular BACE2 in the Ins1e rat cell line (Q6IE75 63-514): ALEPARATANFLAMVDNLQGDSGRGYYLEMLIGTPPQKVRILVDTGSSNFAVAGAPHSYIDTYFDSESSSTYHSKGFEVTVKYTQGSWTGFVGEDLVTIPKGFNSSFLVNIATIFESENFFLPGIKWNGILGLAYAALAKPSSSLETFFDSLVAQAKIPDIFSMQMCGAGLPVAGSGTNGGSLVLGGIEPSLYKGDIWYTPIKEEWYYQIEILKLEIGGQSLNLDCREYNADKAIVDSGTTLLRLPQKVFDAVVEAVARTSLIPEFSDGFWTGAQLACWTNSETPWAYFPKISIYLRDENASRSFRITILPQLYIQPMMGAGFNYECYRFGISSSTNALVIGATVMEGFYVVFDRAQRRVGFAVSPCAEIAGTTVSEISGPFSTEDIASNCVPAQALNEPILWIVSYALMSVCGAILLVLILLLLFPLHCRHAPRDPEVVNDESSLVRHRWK

Compound	IC50 [nM]
Cc1cc(CNc2ccc(F)c([C@@]3(C)N=C(N)N(C)C(=O)C3(C)C)c2)no1 [Example 104, (S)-2-Amino-6-{2-fluoro-5-[(5-methyl-isoxazol-3-ylmethyl)-amino]-phenyl}-3,5,5,6-tetramethyl-5,6-dihydro-3H-pyrimidin-4-one]	4
COc1ccc(Nc2ccc(F)c([C@@]3(C)N=C(N)N(C)C(=O)C3(C)C)c2)cc1 [Example 72, (S)-2-Amino-6-(2-fluoro-5-(4-methoxyphenylamino)phenyl)-3,5,5,6-tetramethyl-5,6-dihydropyrimidin-4(3H)-one]	201
CN1C(=O)C(C)(C)[C@@](C)(c2cc(NCC3CCC3)ccc2F)N=C1N [Example 70, (S)-2-Amino-6-[5-(C-cyclobutylmethyl-amino)-2-fluoro-phenyl]-3,5,5,6-tetramethyl-5,6-dihydro-3H-pyrimidin-4-one]	16
CN1C(=O)C[C@@](C)(c2cccc(NC(=O)C3(C(F)(F)F)CC3)c2)N=C1N [Example 12, 1-Trifluoromethyl-cyclopropanecarboxylic acid [3-((S)-2-amino-1,4-dimethyl-6-oxo-1,4,5,6-tetrahydro-pyrimidin-4-yl)-phenyl]-amide]	23
CC1OCCC1Nc1ccc(F)c([C@@]2(C)N=C(N)N(C)C(=O)C2(C)C)c1 (stereo partly drawn) [Example 34, (6S)-2-Amino-6-(2-fluoro-5-(2-methyltetrahydrofuran-3-ylamino)phenyl)-3,5,5,6-tetramethyl-5,6-dihydropyrimidin-4(3H)-one]	8
CN1C(=O)C(C)(C)[C@@](C)(c2cc(NC(=O)C3CC3(C)C)ccc2F)N=C1N (stereo partly drawn) [Example 19, N-(3-((S)-2-Amino-1,4,5,5-tetramethyl-6-oxo-1,4,5,6-tetrahydropyrimidin-4-yl)-4-fluorophenyl)-2,2-dimethylcyclopropanecarboxamide]	74
CN1C(=O)C(C)(C)[C@@](C)(c2cc(NC(=O)C3(O)CCC3)ccc2F)N=C1N [Example 147, (S)—N-(3-(2-amino-1,4,5,5-tetramethyl-6-oxo-1,4,5,6-tetrahydropyrimidin-4-yl)-4-fluorophenyl)-1-hydroxycyclobutanecarboxamide]	269
C[C@@H]1CC(Nc2ccc(F)c([C@@]3(C)N=C(N)N(C)C(=O)C3(C)C)c2)C[C@H](C)O1 (stereo partly drawn) [Example 155, (6S)-2-Amino-6-(5-((2R,6S)-2,6-dimethyltetrahydro-2H-pyran-4-ylamino)-2-fluorophenyl)-3,5,5,6-tetramethyl-5,6-dihydropyrimidin-4(3H)-one]	123
CN1C(=O)C(C)(C)[C@@](C)(c2cc(NC3CCc4cccc(F)c43)ccc2F)N=C1N (stereo partly drawn) [Example 63, (6S)-2-Amino-6-(2-fluoro-5-(7-fluoro-2,3-dihydro-1H-inden-1-ylamino)phenyl)-3,5,5,6-tetramethyl-5,6-dihydropyrimidin-4(3H)-one]	21
CN1C(=O)C(C)(C)[C@@](C)(c2cc(NC(=O)C(O)C(F)(F)F)ccc2F)N=C1N (stereo partly drawn) [Example 8, N-[3-((S)-2-Amino-1,4,5,5-tetramethyl-6-oxo-1,4,5,6-tetrahydro-pyrimidin-4-yl)-4-fluoro-phenyl]-3,3,3-trifluoro-2-hydroxy-propionamide]	9
CN1C(=O)C(C)(C)[C@@](C)(c2cc(NC3CCc4c(C(=O)O)cccc43)ccc2F)N=C1N (stereo partly drawn) [Example 136, 1-[3-((S)-2-Amino-1,4,5,5-tetramethyl-6-oxo-1,4,5,6-tetrahydro-pyrimidin-4-yl)-4-fluoro-phenylamino]-indan-4-carboxylic acid]	2000
CC(Nc1ccc(F)c([C@@]2(C)N=C(N)N(C)C(=O)C2(C)C)c1)c1nc2ccccc2s1 (stereo partly drawn) [Example 127, (S)-2-Amino-6-[5-(1-benzothiazol-2-yl-ethylamino)-2-fluoro-phenyl]-3,5,5,6-tetramethyl-5,6-dihydro-3H-pyrimidin-4-one]	73
CN1C(=O)C(C)(C)[C@@](C)(c2cc(NC(=O)C3(C)COC3)ccc2F)N=C1N [Example 131]	256
CC(=O)OC1CC2CC1CC2Nc1ccc(F)c([C@@]2(C)N=C(N)N(C)C(=O)C2(C)C)c1 (stereo partly drawn) [Example 93, Acetic acid 5-[3-((S)-2-amino-1,4,5,5-tetramethyl-6-oxo-1,4,5,6-tetrahydro-pyrimidin-4-yl)-4-fluoro-phenylamino]-bicyclo[2.2.1]hept-2-yl ester]	25
CN1C(=O)C(C)(C)[C@@](C)(c2cc(Nc3ccn(C)n3)ccc2F)N=C1N [Example 99, (S)-2-Amino-6-[2-fluoro-5-(1-methyl-1H-pyrazol-3-ylamino)-phenyl]-3,5,5,6-tetramethyl-5,6-dihydro-3H-pyrimidin-4-one]	6
CN1C(=O)C(C)(C)[C@@](C)(c2cc(NCC3CC3)ccc2F)N=C1N [Example 52, (S)-2-Amino-6-(5-(C-cyclopropylmethylamino)-2-fluorophenyl)-3,5,5,6-tetramethyl-5,6-dihydropyrimidin-4(3H)-one]	7
CN1C(=O)C(C)(C)[C@@](C)(c2cc(Nc3cccnc3)ccc2F)N=C1N [Example 138, (S)-2-Amino-6-(2-fluoro-5-(pyridin-3-ylamino)phenyl)-3,5,5,6-tetramethyl-5,6-dihydropyrimidin-4(3H)-one]	500
CN1C(=O)C(C)(C)[C@@](C)(c2cc(NC(=O)[C@](C)(O)C(F)(F)F)ccc2F)N=C1N [Example 143, (S)—N-(3-((S)-2-amino-1,4,5,5-tetramethyl-6-oxo-1,4,5,6-tetrahydropyrimidin-4-yl)-4-fluorophenyl)-3,3,3-trifluoro-2-hydroxy-2-methylpropanamide]	44
CN1C(=O)C(C)(C)[C@@](C)(c2cc(NCC3(C(F)(F)F)CC3)ccc2F)N=C1N [Example 87, (S)-2-Amino-6-{2-fluoro-5-[(1-trifluoromethyl-cyclopropylmethyl)-amino]-phenyl}-3,5,5,6-tetramethyl-5,6-dihydro-3H-pyrimidin-4-one]	119
CN1C(=O)C(C)(C)[C@@](C)(c2cc(NC3CCCC3C#N)ccc2F)N=C1N (stereo partly drawn) [Example 135, 2-[3-((S)-2-Amino-1,4,5,5-tetramethyl-6-oxo-1,4,5,6-tetrahydro-pyrimidin-4-yl)-4-fluoro-phenylamino]-cyclopentanecarbonitrile]	1
Cc1ncsc1CNc1ccc(F)c([C@@]2(C)N=C(N)N(C)C(=O)C2(C)C)c1 [Example 78, (S)-2-Amino-6-{2-fluoro-5-[(4-methyl-thiazol-5-ylmethyl)-amino]-phenyl}-3,5,5,6-tetramethyl-5,6-dihydro-3H-pyrimidin-4-one]	156
CN1C(=O)C(C)(C)[C@@](C)(c2cc(Nc3ccccc3Cl)ccc2F)N=C1N [Example 119, (S)-2-Amino-6-(5-(2-chlorophenylamino)-2-fluorophenyl)-3,5,5,6-tetramethyl-5,6-dihydropyrimidin-4(3H)-one]	16
CN1C(=O)C(C)(C)[C@@](C)(c2cc(NC3CC4CC3CC4O)ccc2F)N=C1N (stereo partly drawn) [Example 101, (6S)-2-Amino-6-(2-fluoro-5-(5-hydroxybicyclo[2.2.1]heptan-2-ylamino)phenyl)-3,5,5,6-tetramethyl-5,6-dihydropyrimidin-4(3H)-one]	1
CCOC(=O)[C@H]1[C@@H]2C[C@@H](O)C(Nc3ccc(F)c([C@@]4(C)N=C(N)N(C)C(=O)C4(C)C)c3)[C@@H]21 (stereo partly drawn) [Example 100, (1S,3R,5R,6S)-ethyl 2-(3-((S)-2-amino-1,4,5,5-tetramethyl-6-oxo-1,4,5,6-tetrahydropyrimidin-4-yl)-4-fluorophenylamino)-3-hydroxybicyclo[3.1.0]hexane-6-carboxylate]	1
CN1C(=O)C[C@]2(CCc3ccc(NC(=O)C4(C(F)(F)F)CC4)cc32)N=C1N [Example 15, (S)—N-(2′-Amino-1′-methyl-6′-oxo-2,3,5′,6′-tetrahydro-1′H-spiro[indene-1,4′-pyrimidine]-6-yl)-1-(trifluoromethyl)cyclopropanecarboxamide]	7
C[C@@]1(c2cccc(NC(=O)C3(C(F)(F)F)CC3)c2)CC(=O)N(CC2CC2)C(N)=N1 [Example 13, 1-Trifluoromethyl-cyclopropanecarboxylic acid [3-((S)-2-amino-1-c-cyclopropylmethyl-4-methyl-6-oxo-1,4,5,6-tetrahydro-pyrimidin-4-yl)-phenyl]-amide]	190
CN1C(=O)C(C)(C)[C@@](C)(c2cc(NC3CCN(Cc4ccccc4)CC3)ccc2F)N=C1N [Example 43, (S)-2-Amino-6-[5-(1-benzyl-piperidin-4-ylamino)-2-fluoro-phenyl]-3,5,5,6-tetramethyl-5,6-dihydro-3H-pyrimidin-4-one]	211
Cc1ccccc1Nc1ccc(F)c([C@@]2(C)N=C(N)N(C)C(=O)C2(C)C)c1 [Example 55, (S)-2-Amino-6-(2-fluoro-5-(o-tolylamino)phenyl)-3,5,5,6-tetramethyl-5,6-dihydro-pyrimidin-4(3H)-one]	115
CN1C(=O)C(C)(C)[C@@](C)(c2cc(NCC3(C)COC3)ccc2F)N=C1N [Example 71, (S)-2-Amino-6-{2-fluoro-5-[(3-methyl-oxetan-3-ylmethyl)-amino]-phenyl}-3,5,5,6-tetramethyl-5,6-dihydro-3H-pyrimidin-4-one]	14
